# Test results taken from PMC3642319, “Biochemical and Immunological Characterization of Toxoplasma gondii Macrophage Migration Inhibitory Factor” (The Journal of Biological Chemistry, 2013).
# Legend:
# HsMIF = molecular target: T1, HsMIF (Homo sapiens, UniProt P14174); experiment: dopachrome tautomerase assay, absorbance at […] nm; format: biochemical
# T1 construct: gene MIF; commercial recombinant human MIF (R&D Systems)
# T1 sequence (P14174 2-115): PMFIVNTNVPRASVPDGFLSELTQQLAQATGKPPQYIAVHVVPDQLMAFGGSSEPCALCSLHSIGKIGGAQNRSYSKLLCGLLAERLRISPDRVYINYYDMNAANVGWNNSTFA
# [1] = system: COC(=O)[C@@H]1CC2=CC(=O)C(=O)C=C2N1; experiment: purified protein; settings: L-DOPA methyl ester (1-20 mM) oxidised in situ with sodium periodate, sodium phosphate pH 6.2, 1 mM EDTA, 37 °C, paper names the substrate L-DOPA methyl ester
Compound,inhibition at 10 µM (HsMIF),Km [1]
COC(=O)CC1CC(c2ccc(O)cc2)=NO1 (racemic) [ISO-1],60%,
TgMIF (Toxoplasma gondii),,9.6 mM
